Experimental data from US7667052B2 (Eisai R&D Management Co., Ltd., priority 2003, dated 2010).
Like-named read-outs stand apart in the source and are kept apart here.

Tested on: transcription from VEGF promoter
Test: VEGF transcription-suppressing activity, VEGF-PLAP reporter in U251/1-8 cell
Type: cell-based
Settings: Homo sapiens, U-251, U251/1-8 cell, PLAP activity, low oxygen 18 hours
Method in brief: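 U251 glioma clone stably carrying a ~2.3 kb human VEGF promoter–secreted PLAP reporter, 4×10^4 cells/well, exposed to 3-fold dilutions of compound for 18 h under low oxygen. Supernatant PLAP read by chemiluminescence at pH 10.0; IC50 = 50% suppression, normoxia 0%, hypoxia 100%.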

`CCC(O)C(C)C1OC1CC(C)/C=C/C=C(\C)C1OC(=O)CC(O)CCC(C)(O)C(OC(C)=O)/C=C/C1C` (centres unmarked) [11107B] was tested, and the IC50 (read-out: IC50 values of VEGF transcription-suppressing activity (range given)) was 1 to 100 nM and the IC50 (read-out: VEGF transcription suppressing activity (IC50: nM)) was 1.8 nM.
